Source: US4921984A, “Novel platinum complexes” (Nippon Kayaku Kabushiki Kaisha, priority 1985, dated 1990)

How the values were obtained:
[1] = test system: mouse leukemia L1210 cells; assay: Growth inhibition test on cultured mouse leukemia L1210 cells; type: cell-based; conditions: RPMI 1640 with 10% fetal calf serum
Procedure: Mouse leukemia L1210 cells were cultured in a RPMI 1640 medium containing 10% of fetal calf serum.

[2] = test system: mouse leukemia L1210; assay: Antitumor activity test on mouse leukemia L1210 in vivo; conditions: for max (T/C): L1210, average survival time treated/control ×100, i.p. once a day for 5 days; for Opt. dose: L1210, dose giving max (T/C); for Opt. dose / LD50: i.p. once a day for 5 days; for LD50: L1210-bearing CDF1 mice
Procedure: Mice of compound-non-treated group (control group) were administered with physiological saline solution in the same manner. The average survival times of the compound-treated group and the control group (abbreviated as T and C, respectively) were measured and T/C percentage (T/C×100) was calculated from the following equation. [formula]
In Table 4, max (T/C) means the maximum value of T/C and optimum dose (opt. dose) means an administration amount giving the max namely, an optimum administration amount.

| SMILES | IC50 [1] | max (T/C) [2] | Opt. dose [2] | LD50 [2] | Solubility in physiological saline solution | Solubility in water |
| --- | --- | --- | --- | --- | --- | --- |
| CC1CCC[NH2+][Pt-2]([Cl])([Cl])[NH2+]1 (racemic) [Compound No. 4] | 0.20 µg/mL | 225% | 2 mg/kg | 2.4 mg/kg | > 2 mg/ml | – |
| CC1CCC[NH2+][Pt-2]2([NH2+]1)[O]C(=O)C(C)(C)C(=O)[O]2 (racemic) [Compound No. 8, cis-Dimethylmalonato-1-methyl-1,4-butanediamine platinum] | 0.90 µg/mL | 189% | 64 mg/kg | – | – | – |
| CCC1C(=O)[O][Pt-2]2([NH2+]CCCC(C)[NH2+]2)[O]C1=O (racemic) [Compound No. 9, cis-Ethylmalonato-1-methyl-1,4-butanediamine platinum] | 2.40 µg/mL | 222% | 64 mg/kg | 96.0 mg/kg | – | > 10000 µg/mL |
| CCC1CCC[NH2+][Pt-2]([Cl])([Cl])[NH2+]1 (racemic) [Compound No. 10, cis-Dichloro-1-ethyl-1,4-butanediamine platinum] | 0.35 µg/mL | 210% | 4 mg/kg | 6.0 mg/kg | > 2 mg/ml | – |
| CC1CC[NH2+][Pt-2]([Cl])([Cl])[NH2+]C1 (racemic) [Compound No. 13, cis-Dichloro-2-methyl-1,4-butanediamine platinum] | 0.10 µg/mL | 187% | 2 mg/kg | 4.2 mg/kg | > 2 mg/ml | – |
| CC1CC[NH2+][Pt-2]2([NH2+]C1)[O]C(=O)CC(=O)[O]2 (racemic) [Compound No. 14, cis-Malonato-2-methyl-1,4-butanediamine platinum] | 0.74 µg/mL | 346% | 32 mg/kg | – | – | – |
| CC1CC[NH2+][Pt-2]2([NH2+]C1)[O]C(=O)C1(CCOCC1)C(=O)[O]2 (racemic) [Compound No. 16, cis-4-Oxacyclohexane-1,1-dicarboxylato-2-methyl-1,4-butanediamine platinum] | 0.43 µg/mL | 167% | 8 mg/kg | 12.0 mg/kg | – | > 15000 µg/mL |
| CC1CC[NH2+][Pt-2]2([NH2+]C1)[O]C(=O)C(C)(C)C(=O)[O]2 (racemic) [Compound No. 17, cis-Dimethylmalonato-2-methyl-1,4-butanediamine platinum] | 0.50 µg/mL | 238% | 32 mg/kg | – | – | – |
| CCC1C(=O)[O][Pt-2]2([NH2+]CCC(C)C[NH2+]2)[O]C1=O (racemic) [Compound No. 18, cis-Ethylmalonato-2-methyl-1,4-butanediamine platinum] | 0.84 µg/mL | 264% | 16 mg/kg | 24.0 mg/kg | – | > 10000 µg/mL |
| CCC1CC[NH2+][Pt-2]([Cl])([Cl])[NH2+]C1 (racemic) [Compound No. 29, cis-Dichloro-2-ethyl-1,4-butanediamine platinum] | 0.05 µg/mL | 261% | 2 mg/kg | 3.0 mg/kg | > 2 mg/ml | – |
| CCC1CC[NH2+][Pt-2]2([NH2+]C1)[O]C(=O)C(=O)[O]2 (racemic) [Compound No. 30, cis-Oxalato-2-ethyl-1,4-butanediamine platinum] | 0.06 µg/mL | 253% | 8 mg/kg | – | – | – |
| CCC1CC[NH2+][Pt-2]2([NH2+]C1)[O]C(=O)C(C)(C)C(=O)[O]2 (racemic) [Compound No. 33, cis-Dimethylmalonato-2-ethyl-1,4-butanediamine platinum] | 0.23 µg/mL | – | – | – | – | – |
| [Cl][Pt-2]1([Cl])[NH2+]CCCC[NH2+]1 [Compound No. 1, cis-Dichloro-1,4-butanediamine platinum] | 0.33 µg/mL | 203% | 2 mg/kg | 4.8 mg/kg | > 2 mg/ml | – |
| O=C1[O][Pt-2]2([NH2+]CCCC[NH2+]2)[O]C(=O)C12CCC2 [Compound No. 2, cis-Cyclobutane-1,1-dicarboxylato-1,4-butanediamine Platinum] | 0.88 µg/mL | 182% | 32 mg/kg | 48.0 mg/kg | – | – |
| O=C1[O][Pt-2]2([NH2+]CCCC[NH2+]2)[O]C(=O)C12CCOCC2 [Compound No. 3, cis-4-Oxacyclohexane-1,1-dicarboxylato-1,4-butanediamine platinum] | 0.65 µg/mL | 132% | 8 mg/kg | 8.4 mg/kg | – | > 10000 µg/mL |
| CC(N)CCCN.O=C([O-])C(=O)[O-].[Pt+2] (stereo not drawn) [Compound No. 5, cis-Oxalato-1-methyl-1,4-butanediamine platinum] | 0.29 µg/mL | 273% | 4 mg/kg | – | – | – |

| SMILES | IC50 [1] | max (T/C) [2] | Opt. dose [2] | LD50 [2] | Solubility in physiological saline solution | Solubility in water |
| --- | --- | --- | --- | --- | --- | --- |
| CC(N)CCCN.O=C([O-])CC(=O)[O-].[Pt+2] (stereo not drawn) [Compound No. 6, cis-Malonato-1-methyl-1,4-butanediamine platinum] | 0.76 µg/mL | 359% | 32 mg/kg | – | – | – |
| CC(N)CCCN.O=C([O-])C1(C(=O)[O-])CCC1.[Pt+2] [Compound No. 7, cis-Cyclobutane-1,1-dicarboxylato-1-methyl-1,4-butanediamine platinum] | 2.80 µg/mL | 176% | 64 mg/kg | – | – | – |
| CCC(N)CCCN.O=C([O-])C1(C(=O)[O-])CCC1.[Pt+2] [Compound No. 11, cis-Cyclobutane-1,1-dicarboxylato-1-ethyl-1,4-butanediamine platinum] | 4.70 µg/mL | 139% | 64 mg/kg | – | – | > 3000 µg/mL |
| CCC(N)CCCN.O=C([O-])C1(C(=O)[O-])CCOCC1.[Pt+2] [Compound No. 12, cis-4-Oxacyclohexane-1,1-dicarboxylato-1-ethyl-1,4-butanediamine platinum] | 1.05 µg/mL | 181% | 64 mg/kg | – | – | – |
| CC1(C)CC[NH2+][Pt-2]([Cl])([Cl])[NH2+]C1 [Compound No. 19, cis-Dichloro-2,2-dimethyl-1,4-butanediamine platinum] | 0.20 µg/mL | 359% | 4 mg/kg | 6.0 mg/kg | > 2 mg/ml | – |
| CC1(C)CC[NH2+][Pt-2]2([NH2+]C1)[O]C(=O)C(=O)[O]2 [Compound No. 20, cis-Oxalato-2,2-dimethyl-1,4-butanediamine platinum] | 0.37 µg/mL | 272% | 8 mg/kg | – | – | – |
| CC1(C)CC[NH2+][Pt-2]2([NH2+]C1)[O]C(=O)CC(=O)[O]2 [Compound No. 21, cis-Malonato-2,2-dimethyl-1,4-butanediamine platinum] | 0.72 µg/mL | 301% | 32 mg/kg | – | – | – |
| CC(C)(CN)CCN.O=C([O-])C1(C(=O)[O-])CCC1.[Pt+2] [Compound No. 22, cis-Cyclobutane-1,1-dicarboxylato-2,2-dimethyl-1,4-butanediamine platinum] | 2.20 µg/mL | 320% | 128 mg/kg | – | – | > 3000 µg/mL |
| CC1(C)CC[NH2+][Pt-2]2([NH2+]C1)[O]C(=O)C1(CCOCC1)C(=O)[O]2 [Compound No. 23, cis-4-Oxacyclohexane-1,1-dicarboxylato-2,2-dimethyl-1,4-butanediamine platinum] | 0.44 µg/mL | 159% | 32 mg/kg | – | – | > 3000 µg/mL |
| CC1(C)CC[NH2+][Pt-2]2([NH2+]C1)[O]C(=O)C(C)(C)C(=O)[O]2 [Compound No. 24, cis-Dimethylmalonato-2,2-dimethyl-1,4-butanediamine platinum] | 0.78 µg/mL | 253% | 64 mg/kg | – | – | – |
| CC1(C)CCC[NH2+][Pt-2]2([NH2+]1)[O]C(=O)C(=O)[O]2 [Compound No. 26, cis-Oxalato-1,1-dimethyl-1,4-butanediamine platinum] | 0.30 µg/mL | – | – | – | – | – |
| CC1(C)CCC[NH2+][Pt-2]2([NH2+]1)[O]C(=O)C1(CCC1)C(=O)[O]2 [Compound No. 27, cis-Cyclobutane-1,1-dicarboxylato-1,1-dimethyl-1,4-butanediamine platinum] | – | – | – | – | – | > 10000 µg/mL |
| CC(C)(C(=O)[O-])C(=O)[O-].CC(C)(N)CCCN.[Pt+2] [Compound No. 28, cis-Dimethylmalonato-1,1-dimethyl-1,4-butanediamine platinum] | 4.50 µg/mL | – | – | – | – | – |
| CCC(CN)CCN.O=C([O-])CC(=O)[O-].[Pt+2] (stereo not drawn) [Compound No. 31, cis-Malonato-2-ethyl-1,4-butanediamine platinum] | 0.66 µg/mL | – | – | – | – | – |
| CCC(CN)CCN.O=C([O-])C1(C(=O)[O-])CCC1.[Pt+2] [Compound No. 32, cis-Cyclobutane-1,1-dicarboxylato-2-ethyl-1,4-butanediamine platinum] | 0.67 µg/mL | 275% | 32 mg/kg | – | – | – |
